Results taken from PMC5396265 (Angewandte Chemie (International Ed. in English), 2017).

Target: SPM-1 (São Paulo metallo-β-lactamase; SPM-1* for 19F-labelled variants) (Pseudomonas aeruginosa, UniProt Q8G9Q0, Y58C)
Settings: Cys58 labelled with CH2COCF3 (BTFA); meropenem up to 400 uM, 40 uM protein, 50 mM Tris pH 7.5, 9:1 H2O/D2O; product formed in situ; presence of this pair in Table S3 not seen

SPM-1 (São Paulo metallo-β-lactamase; SPM-1* for 19F-labelled variants), sequence (Q8G9Q0 29-276 Y58C): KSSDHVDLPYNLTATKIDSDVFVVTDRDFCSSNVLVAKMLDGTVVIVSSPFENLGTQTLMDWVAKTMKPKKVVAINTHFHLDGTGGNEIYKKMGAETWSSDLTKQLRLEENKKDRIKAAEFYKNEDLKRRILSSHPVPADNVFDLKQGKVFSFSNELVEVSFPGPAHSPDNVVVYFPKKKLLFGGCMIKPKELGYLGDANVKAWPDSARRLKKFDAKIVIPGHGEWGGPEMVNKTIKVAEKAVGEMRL

How did the Kd turn out when `CC(O)C(C(=O)O)C1NC(C(=O)O)=C(SC2CNC(C(=O)N(C)C)C2)C1C` (stereo not shown) [hydrolyzed meropenem] was run?
Its Kd is 100 ± 10 µM.
